The text below walks through data of patent EP0573682A1, “Tea polyphenols as anti-hyperglycemic agents” (MITSUI NORIN CO., LTD., priority 1992, dated 1993).

For series [1], the system named is ICR mice. As to the kind of experiment: Acute toxicity. The following applies: perorally administered; 6 week ICR male mice; 10080 min. Type of series: in vivo. The procedure:
(§1) (-)Epigallocatechin gallate was tested with respect to its acute toxicity. Where (-)epigallocatechin gallate was perorally administered to 6 week ICR male mice, LD₅₀ after one week was 2314mg/kg. Where (-)epigallocatechin was administered intraperitonealy to 5 week old female ICR mice, LD₅₀ after one week was 150mg/kg.

Series [2] is described as follows: Acute toxicity. Format: in vivo, mice. As to conditions: mouse, in vivo, ip; administered intraperitonealy; 5 week old female ICR mice; read-out: LD₅₀ after one week. As to the method: as §1

With `O=C(O[C@@H]1Cc2c(O)cc(O)cc2O[C@@H]1c1cc(O)c(O)c(O)c1)c1cc(O)c(O)c(O)c1` [(-)epigallocatechin gallate, (-) Epigallocatechin gallate], the “LD₅₀ after one week” value in series [1] was 2314 mg/kg.
For `Oc1cc(O)c2c(c1)O[C@H](c1cc(O)c(O)c(O)c1)[C@H](O)C2` [(-)epigallocatechin, (-) Epigallocatechin], the LD50 at 168 h in series [2] was found to be 150 mg/kg.
